Test results from PubChem BioAssay AID2060894 (Molecular Pharmacology Branch, DTP, NCI, 2025).

System: K12877-001-R-J1-PDC complex spheroid viability
Assay: Anticancer human tumor K12877-001-R-J1-PDC patient-derived lung adenocarcinoma cell line growth inhibition [RAS]
Details: for IC50: curve of first compound; for viability, T/C: stronger effect = lower value
How it was run: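 Tumour cells grown as complex spheroids with HUVEC endothelial cells and mesenchymal stem cells, treated with RAS pathway inhibitor combinations. Each agent spans half-log steps from near clinical Cmax, or 10 microM where Cmax is unknown.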

[1] = second compound 0.00316 µM, first compound 0.0316 µM
[2] = second compound 0.00316 µM, first compound 0.1 µM
[3] = second compound 0.00316 µM, first compound 0.316 µM
[4] = second compound 0.00316 µM, first compound 1 µM
[5] = second compound 0.00316 µM, first compound 3.16 µM
[6] = second compound 0.00316 µM, first compound 10 µM
[7] = second compound 0.01 µM, first compound 0.0316 µM
[8] = second compound 0.01 µM, first compound 0.1 µM
[9] = second compound 0.01 µM, first compound 0.316 µM
[10] = second compound 0.01 µM, first compound 1 µM
[11] = second compound 0.01 µM, first compound 3.16 µM
[12] = second compound 0.01 µM, first compound 10 µM
[13] = second compound 0.0316 µM, first compound 0.0316 µM
[14] = second compound 0.0316 µM, first compound 0.1 µM
[15] = second compound 0.0316 µM, first compound 0.316 µM
[16] = second compound 0.0316 µM, first compound 1 µM
[17] = second compound 0.0316 µM, first compound 3.16 µM
[18] = second compound 0.0316 µM, first compound 10 µM
[19] = second compound 0.1 µM, first compound 0.0316 µM
[20] = second compound 0.1 µM, first compound 0.1 µM
[21] = second compound 0.1 µM, first compound 0.316 µM
[22] = second compound 0.1 µM, first compound 1 µM
[23] = second compound 0.1 µM, first compound 3.16 µM
[24] = second compound 0.1 µM, first compound 10 µM
[25] = second compound 0.316 µM, first compound 0.0316 µM
[26] = second compound 0.316 µM, first compound 0.1 µM
[27] = second compound 0.316 µM, first compound 0.316 µM
[28] = second compound 0.316 µM, first compound 1 µM
[29] = second compound 0.316 µM, first compound 3.16 µM
[30] = second compound 0.316 µM, first compound 10 µM
[31] = second compound 1 µM, first compound 0.0316 µM
[32] = second compound 1 µM, first compound 0.1 µM
[33] = second compound 1 µM, first compound 0.316 µM
[34] = second compound 1 µM, first compound 1 µM
[35] = second compound 1 µM, first compound 3.16 µM
[36] = second compound 1 µM, first compound 10 µM
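Note: spheroids exposed to agents for one week before readout.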

## Cc1nc(N2CCC3(CC2)COC(C)C3N)c(CO)nc1Sc1ccnc(N)c1Cl (stereo unspecified) + C=CC(=O)N1CCN(c2nc(OCC3CCCN3C)nc3c(F)c(-c4nc(N)cc(C)c4C(F)(F)F)c(Cl)cc23)C(C)C1
Second compound 0.00316 µM
  IC50: > 10 µM
Second compound 0.01 µM
  IC50: > 10 µM
Second compound 0.0316 µM
  IC50: > 10 µM
Second compound 0.1 µM
  IC50: > 10 µM
Second compound 0.316 µM
  IC50: > 10 µM
Second compound 1 µM
  IC50: > 10 µM
[1]
  viability, T/C: 111%
[2]
  viability, T/C: 98.5%
[3]
  viability, T/C: 90.6%
[4]
  viability, T/C: 86.9%
[5]
  viability, T/C: 92.4%
[6]
  viability, T/C: 93%
[7]
  viability, T/C: 94.8%
[8]
  viability, T/C: 79.3%
[9]
  viability, T/C: 84.4%
[10]
  viability, T/C: 93.3%
[11]
  viability, T/C: 83.9%
[12]
  viability, T/C: 68.5%
[13]
  viability, T/C: 91.2%
[14]
  viability, T/C: 92.9%
[15]
  viability, T/C: 88.3%
[16]
  viability, T/C: 70%
[17]
  viability, T/C: 80.7%
[18]
  viability, T/C: 65.8%
[19]
  viability, T/C: 99.7%
[20]
  viability, T/C: 87.6%
[21]
  viability, T/C: 85.7%
[22]
  viability, T/C: 86.9%
[23]
  viability, T/C: 79.2%
[24]
  viability, T/C: 60.2%
[25]
  viability, T/C: 84.9%
[26]
  viability, T/C: 75.9%
[27]
  viability, T/C: 80.5%
[28]
  viability, T/C: 93.9%
[29]
  viability, T/C: 79.4%
[30]
  viability, T/C: 61.4%
[31]
  viability, T/C: 87.3%
[32]
  viability, T/C: 90.8%
[33]
  viability, T/C: 98.8%
[34]
  viability, T/C: 92.6%
[35]
  viability, T/C: 78.8%
[36]
  viability, T/C: 62.2%

## NC1c2ccccc2OC12CCN(c1cnc3c(N4CCCc5ncccc54)n[nH]c3n1)CC2 (stereo unspecified) + C=CC(=O)N1CCN(c2nc(OCC3CCCN3C)nc3c(F)c(-c4nc(N)cc(C)c4C(F)(F)F)c(Cl)cc23)C(C)C1
Second compound 0.00316 µM
  IC50: > 10 µM
Second compound 0.01 µM
  IC50: 8.9 µM
Second compound 0.0316 µM
  IC50: 6.88 µM
Second compound 0.1 µM
  IC50: 5.24 µM
Second compound 0.316 µM
  IC50: 5.89 µM
Second compound 1 µM
  IC50: 9.97 µM
[1]
  viability, T/C: 82.2%
[2]
  viability, T/C: 89.4%
[3]
  viability, T/C: 83.9%
[4]
  viability, T/C: 84.5%
[5]
  viability, T/C: 63.4%
[6]
  viability, T/C: 52.7%
[7]
  viability, T/C: 82.7%
[8]
  viability, T/C: 92.4%
[9]
  viability, T/C: 84.6%
[10]
  viability, T/C: 78.1%
[11]
  viability, T/C: 65.5%
[12]
  viability, T/C: 48.2%
[13]
  viability, T/C: 89.8%
[14]
  viability, T/C: 79.6%
[15]
  viability, T/C: 75.4%
[16]
  viability, T/C: 69.3%
[17]
  viability, T/C: 57.5%
[18]
  viability, T/C: 45.9%
[19]
  viability, T/C: 97.3%
[20]
  viability, T/C: 79.3%
[21]
  viability, T/C: 67.4%
[22]
  viability, T/C: 64.5%
[23]
  viability, T/C: 54.7%
[24]
  viability, T/C: 44.4%
[25]
  viability, T/C: 81.5%
[26]
  viability, T/C: 73.5%
[27]
  viability, T/C: 70.3%
[28]
  viability, T/C: 63.4%
[29]
  viability, T/C: 48.9%
[30]
  viability, T/C: 48.9%
[31]
  viability, T/C: 81.9%
[32]
  viability, T/C: 95.9%
[33]
  viability, T/C: 66.7%
[34]
  viability, T/C: 76.7%
[35]
  viability, T/C: 55.5%
[36]
  viability, T/C: 50.7%

## Nc1ccn(C2OC(CO)C(O)C2(F)F)c(=O)n1 (stereo unspecified) + C=CC(=O)N1CCN(c2nc(OCC3CCCN3C)nc3c(F)c(-c4nc(N)cc(C)c4C(F)(F)F)c(Cl)cc23)C(C)C1
Second compound 0.00316 µM
  IC50: 0.0179 µM
Second compound 0.01 µM
  IC50: 0.0169 µM
Second compound 0.0316 µM
  IC50: 0.0161 µM
Second compound 0.1 µM
  IC50: 0.0166 µM
Second compound 0.316 µM
  IC50: 0.0144 µM
Second compound 1 µM
  IC50: 0.0131 µM
Second compound 0.00316 µM, first compound 0.00316 µM
  viability, T/C: 95.9%
Second compound 0.00316 µM, first compound 0.01 µM
  viability, T/C: 94.4%
[1]
  viability, T/C: 6.55%
[2]
  viability, T/C: 4.24%
[3]
  viability, T/C: 4.05%
[4]
  viability, T/C: 3.99%
Second compound 0.01 µM, first compound 0.00316 µM
  viability, T/C: 93.7%
Second compound 0.01 µM, first compound 0.01 µM
  viability, T/C: 83%
[7]
  viability, T/C: 10.8%
[8]
  viability, T/C: 4.22%
[9]
  viability, T/C: 4.2%
[10]
  viability, T/C: 4.01%
Second compound 0.0316 µM, first compound 0.00316 µM
  viability, T/C: 83.5%
Second compound 0.0316 µM, first compound 0.01 µM
  viability, T/C: 81.2%
[13]
  viability, T/C: 6.08%
[14]
  viability, T/C: 3.45%
[15]
  viability, T/C: 5.01%
[16]
  viability, T/C: 4.23%
Second compound 0.1 µM, first compound 0.00316 µM
  viability, T/C: 87.8%
Second compound 0.1 µM, first compound 0.01 µM
  viability, T/C: 84.7%
[19]
  viability, T/C: 6.15%
[20]
  viability, T/C: 4.69%
[21]
  viability, T/C: 4.71%
[22]
  viability, T/C: 3.18%
Second compound 0.316 µM, first compound 0.00316 µM
  viability, T/C: 84.9%
Second compound 0.316 µM, first compound 0.01 µM
  viability, T/C: 70.4%
[25]
  viability, T/C: 6.26%
[26]
  viability, T/C: 4.95%
[27]
  viability, T/C: 4.16%
[28]
  viability, T/C: 4.03%
Second compound 1 µM, first compound 0.00316 µM
  viability, T/C: 83.5%
Second compound 1 µM, first compound 0.01 µM
  viability, T/C: 63.4%
[31]
  viability, T/C: 6.51%
[32]
  viability, T/C: 3.92%
[33]
  viability, T/C: 4.72%
[34]
  viability, T/C: 5.35%
